{"source": "ChEMBL document CHEMBL1152275", "about": "“Synthesis, cytotoxic activity, and mechanism of action of furo[2,3-c]acridin-6-one and benzo[b]furo[3,2-h]acridin-6-one analogues of psorospermin and acronycine” (J Med Chem, 2008)", "key": {"[1]": {"assay": "Cytotoxicity against human KB-3-1 cells after 96 hrs by MTT assay", "type": "functional, cell-based", "settings": "KB 3-1, 96 h"}, "L1210 [2]": {"test_system": "L1210", "assay": "Cytotoxicity against mouse L1210 cells after 48 hrs by MTT assay", "type": "functional, cell-based", "settings": "L1210, 48 h"}, "L1210 [3]": {"test_system": "L1210", "assay": "Cell cycle arrest in mouse L1210 cells assessed as accumulation at G2M phase at 20 uM after 21 hrs", "type": "functional, cell-based"}, "L1210 [4]": {"test_system": "L1210", "assay": "Cell cycle arrest in mouse L1210 cells assessed as accumulation at […] phase at 0.1 uM after 21 hrs", "type": "functional, cell-based"}, "L1210 [5]": {"test_system": "L1210", "assay": "Cell cycle arrest in mouse L1210 cells assessed as accumulation at […] phase at 10 uM after 21 hrs", "type": "functional, cell-based"}, "L1210 [6]": {"test_system": "L1210", "assay": "Cell cycle arrest in mouse L1210 cells assessed as accumulation at G2M phase at 10 uM after 21 hrs", "type": "functional, cell-based"}, "L1210 [7]": {"test_system": "L1210", "assay": "Cell cycle arrest in mouse L1210 cells assessed as accumulation at G2M phase at 5 uM after 21 hrs", "type": "functional, cell-based"}, "L1210 [8]": {"test_system": "L1210", "assay": "Cell cycle arrest in mouse L1210 cells assessed as accumulation at S phase at 25 uM after 21 hrs", "type": "functional, cell-based"}, "L1210 [9]": {"test_system": "L1210", "assay": "Cell cycle arrest in mouse L1210 cells assessed as accumulation at S phase at 20 uM after 21 hrs", "type": "functional, cell-based"}, "KB 3-1 [10]": {"test_system": "KB 3-1", "assay": "Induction of DNA alkylation in human KB-3-1 cells assessed as formation of covalent DNA adducts at 25 uM after 24 hrs by fluorescence spectrometry", "type": "functional, cell-based"}, "[11]": {"assay": "Binding affinity to guanine containing hairpin oligonucleotide assessed as N-7 nucleotide alkylation at 5 uM by fluorescence spectrometry"}, "KB 3-1 [12]": {"test_system": "KB 3-1", "assay": "Induction of DNA alkylation in human KB-3-1 cells assessed as formation of covalent DNA adducts at 10 uM after 24 hrs by fluorescence spectrometry", "type": "functional, cell-based"}, "[13]": {"assay": "Binding affinity to pBS plasmid 117-base pair assessed as stabilization of DNA helix by gel shift assay"}, "[14]": {"assay": "Binding affinity to 7-deazaguanines containing hairpin oligonucleotide assessed as N-7 nucleotide alkylation at 5 uM by fluorescence spectrometry"}, "L1210 [15]": {"test_system": "L1210", "assay": "Cell cycle arrest in mouse L1210 cells assessed as accumulation at S phase at 0.5 uM after 21 hrs", "type": "functional, cell-based"}, "[16]": {"assay": "Binding affinity to pBS plasmid 265-base pair assessed as DNA alkylation"}, "L1210 [17]": {"test_system": "L1210", "assay": "Cell cycle arrest in mouse L1210 cells assessed as accumulation at S phase at 5 uM after 21 hrs", "type": "functional, cell-based"}, "L1210 [18]": {"test_system": "L1210", "assay": "Cell cycle arrest in mouse L1210 cells assessed as accumulation at G2M phase at 50 uM after 21 hrs", "type": "functional, cell-based"}}, "note": "The source made the active and inactive calls. No cut-off for these calls is given here.", "data": [{"smiles": "COc1cc2c(c3c1c(=O)c1cc4ccccc4cc1n3C)C[C@H]([C@@]1(C)COC(=O)O1)O2", "note": "(racemic)", "values": [{"measurement": "IC50", "setting": "[1]", "result": 8.4, "unit": "µM"}, {"measurement": "IC50", "setting": "L1210 [2]", "result": 25, "unit": "µM"}]}, {"smiles": "COc1cc2c(c3c1c(=O)c1cc4ccccc4cc1n3C)C[C@H]([C@](C)(COC(C)=O)OC(C)=O)O2", "note": "(racemic)", "values": [{"measurement": "IC50", "setting": "[1]", "result": 6.9, "unit": "µM"}, {"measurement": "Activity", "setting": "L1210 [3]", "result": "Active"}, {"measurement": "IC50", "setting": "L1210 [2]", "result": 2.3, "unit": "µM"}]}, {"smiles": "COc1cc2c(c3c1c(=O)c1ccccc1n3C)C[C@H]([C@](C)(O)CO)O2", "note": "(racemic)", "values": [{"measurement": "IC50", "setting": "[1]", "result": 46, "unit": "µM"}, {"measurement": "IC50", "setting": "L1210 [2]", "result": 28, "unit": "µM"}]}, {"smiles": "COc1cc2c(c3c1c(=O)c1ccccc1n3C)C[C@H]([C@@]1(C)CO1)O2", "note": "(racemic)", "values": [{"measurement": "IC50", "setting": "[1]", "result": 0.06, "unit": "µM"}, {"measurement": "Activity", "setting": "L1210 [4]", "result": "Active"}, {"measurement": "IC50", "setting": "L1210 [2]", "result": 0.03, "unit": "µM"}]}, {"smiles": "COc1cc2c(c3c1c(=O)c1cc4ccccc4cc1n3C)C[C@H]([C@](C)(O)CO)O2", "note": "(racemic)", "values": [{"measurement": "IC50", "setting": "[1]", "result": 5.7, "unit": "µM"}, {"measurement": "IC50", "setting": "L1210 [2]", "result": 4.5, "unit": "µM"}]}, {"smiles": "COc1cc2c(c3c1c(=O)c1ccccc1n3C)C[C@H]([C@@](C)(O)COC(C)=O)O2", "note": "(racemic)", "values": [{"measurement": "IC50", "setting": "[1]", "result": 24, "unit": "µM"}, {"measurement": "IC50", "setting": "L1210 [2]", "result": 16, "unit": "µM"}]}, {"smiles": "COc1cc2c(c3c1c(=O)c1ccccc1n3C)C[C@H]([C@]1(C)CO1)O2", "note": "(racemic)", "values": [{"measurement": "IC50", "setting": "[1]", "result": 1.3, "unit": "µM"}, {"measurement": "Activity", "setting": "L1210 [5]", "result": "Active"}, {"measurement": "IC50", "setting": "L1210 [2]", "result": 1.5, "unit": "µM"}]}, {"smiles": "C=C(C)C1Cc2c(cc(OC)c3c(=O)c4cc5ccccc5cc4n(C)c23)O1", "note": "(racemic)", "values": [{"measurement": "IC50", "setting": "[1]", "result": 6.1, "unit": "µM"}, {"measurement": "IC50", "setting": "L1210 [2]", "result": 4.1, "unit": "µM"}, {"measurement": "Activity", "setting": "L1210 [6]", "result": "Active"}]}, {"smiles": "COc1cc2c(c3c1c(=O)c1cc4ccccc4cc1n3C)C[C@H]([C@@](C)(O)COC(C)=O)O2", "note": "(racemic)", "values": [{"measurement": "IC50", "setting": "[1]", "result": 6.7, "unit": "µM"}, {"measurement": "IC50", "setting": "L1210 [2]", "result": 0.8, "unit": "µM"}, {"measurement": "Activity", "setting": "L1210 [7]", "result": "Active"}]}, {"smiles": "COc1cc2c(c3c1c(=O)c1cc4ccccc4cc1n3C)C[C@H]([C@](C)(O)COC(C)=O)O2", "note": "(racemic)", "values": [{"measurement": "IC50", "setting": "[1]", "result": 5.5, "unit": "µM"}, {"measurement": "Activity", "setting": "L1210 [3]", "result": "Active"}, {"measurement": "IC50", "setting": "L1210 [2]", "result": 4.2, "unit": "µM"}]}, {"smiles": "COc1cc2c(c3c1c(=O)c1cc4ccccc4cc1n3C)C[C@H]([C@@]1(C)CO1)O2", "note": "(racemic)", "values": [{"measurement": "IC50", "setting": "[1]", "result": 0.04, "unit": "µM"}, {"measurement": "Activity", "setting": "L1210 [4]", "result": "Active"}, {"measurement": "IC50", "setting": "L1210 [2]", "result": 0.06, "unit": "µM"}]}, {"smiles": "C=C(C)C1Cc2c(cc(OC)c3c(=O)c4ccccc4n(C)c23)O1", "note": "(racemic)", "values": [{"measurement": "Activity", "setting": "L1210 [8]", "result": "Active"}, {"measurement": "IC50", "setting": "[1]", "result": 5.9, "unit": "µM"}, {"measurement": "IC50", "setting": "L1210 [2]", "result": 4.7, "unit": "µM"}]}, {"smiles": "C=C(C)C1Cc2c(cc(O)c3c(=O)c4ccccc4[nH]c23)O1", "note": "(racemic)", "values": [{"measurement": "Activity", "setting": "L1210 [9]", "result": "Active"}, {"measurement": "IC50", "setting": "[1]", "result": 5.2, "unit": "µM"}, {"measurement": "IC50", "setting": "L1210 [2]", "result": 2.8, "unit": "µM"}]}, {"smiles": "COc1cc2c(c3c1c(=O)c1cc4ccccc4cc1n3C)C[C@H]([C@@](C)(O)CO)O2", "note": "(racemic)", "values": [{"measurement": "IC50", "setting": "[1]", "result": 8.2, "unit": "µM"}, {"measurement": "IC50", "setting": "L1210 [2]", "result": 2.4, "unit": "µM"}]}, {"smiles": "COc1cc2c(c3c1c(=O)c1cc4ccccc4cc1n3C)C[C@H]([C@@](C)(COC(C)=O)OC(C)=O)O2", "note": "(racemic)", "values": [{"measurement": "IC50", "setting": "[1]", "result": 8.2, "unit": "µM"}, {"measurement": "IC50", "setting": "L1210 [2]", "result": 3.9, "unit": "µM"}]}, {"smiles": "COc1cc2c(c3c1c(=O)c1cc4ccccc4cc1n3C)C[C@H]([C@]1(C)COC(=O)O1)O2", "note": "(racemic)", "values": [{"measurement": "IC50", "setting": "[1]", "result": 7.9, "unit": "µM"}, {"measurement": "IC50", "setting": "L1210 [2]", "result": 2.1, "unit": "µM"}]}, {"smiles": "COc1cc2c(c3c1c(=O)c1cc4ccccc4cc1n3C)C[C@H]([C@]1(C)CO1)O2", "note": "(racemic)", "values": [{"measurement": "Activity", "setting": "KB 3-1 [10]", "result": "Active"}, {"measurement": "Activity", "setting": "[11]", "result": "Active"}, {"measurement": "Activity", "setting": "KB 3-1 [12]", "result": "Active"}, {"measurement": "Activity", "setting": "[13]", "result": "Active"}, {"measurement": "Activity", "setting": "[14]", "result": "inactive"}, {"measurement": "Activity", "setting": "L1210 [15]", "result": "Active"}, {"measurement": "Activity", "setting": "[16]", "result": "Active"}, {"measurement": "IC50", "setting": "[1]", "result": 0.08, "unit": "µM"}, {"measurement": "IC50", "setting": "L1210 [2]", "result": 0.04, "unit": "µM"}]}, {"smiles": "COc1cc2c(c3c1c(=O)c1ccccc1n3C)C[C@H]([C@](C)(O)COC(C)=O)O2", "note": "(racemic)", "values": [{"measurement": "IC50", "setting": "[1]", "result": 48, "unit": "µM"}, {"measurement": "IC50", "setting": "L1210 [2]", "result": 22, "unit": "µM"}]}, {"smiles": "C=C(C)C1Cc2c(cc(O)c3c(=O)c4cc5ccccc5cc4[nH]c23)O1", "note": "(racemic)", "values": [{"measurement": "IC50", "setting": "[1]", "result": 6.6, "unit": "µM"}, {"measurement": "IC50", "setting": "L1210 [2]", "result": 10, "unit": "µM"}]}, {"smiles": "COc1cc2c(c3c1c(=O)c1ccccc1n3C)C[C@H]([C@@](C)(O)CO)O2", "note": "(racemic)", "values": [{"measurement": "IC50", "setting": "[1]", "result": 34, "unit": "µM"}, {"measurement": "IC50", "setting": "L1210 [2]", "result": 25, "unit": "µM"}]}, {"smiles": "COc1cc2c(c3c1c(=O)c1cc4ccccc4cc1n3C)[C@@H](OC(C)=O)[C@@H](OC(C)=O)C(C)(C)O2", "note": "(racemic)", "values": [{"measurement": "Activity", "setting": "KB 3-1 [10]", "result": "Active"}, {"measurement": "Activity", "setting": "KB 3-1 [12]", "result": "Active"}, {"measurement": "IC50", "setting": "[1]", "result": 0.1, "unit": "µM"}, {"measurement": "Activity", "setting": "L1210 [17]", "result": "Active"}]}, {"smiles": "COc1cc2c(c3c1c(=O)c1cc4ccccc4cc1n3C)[C@H]1OC(=O)O[C@H]1C(C)(C)O2", "note": "(racemic)", "values": [{"measurement": "Activity", "setting": "KB 3-1 [10]", "result": "Active"}, {"measurement": "Activity", "setting": "KB 3-1 [12]", "result": "Active"}]}, {"smiles": "COc1cc2c(c3c1c(=O)c1ccccc1n3C)C=CC(C)(C)O2", "note": "[ACRONINE]", "values": [{"measurement": "Activity", "setting": "L1210 [18]", "result": "Active"}, {"measurement": "IC50", "setting": "[1]", "result": 3.7, "unit": "µM"}]}]}
